Assay results taken from ChEMBL document CHEMBL1158060, “Taspine: bioactivity-guided isolation and molecular ligand-target insight of a potent acetylcholinesterase inhibitor from Magnolia x soulangiana” (J Nat Prod, 2006).

Assays:
[1] = target: Acetylcholinesterase (Electrophorus electricus, UniProt O42275)
[2] = target: Acetylcholinesterase (Homo sapiens, UniProt P22303)
Description: Inhibition of human AChE by Ellman's assay

[3] = target: Cholinesterase (Equus caballus, UniProt P81908)
Cholinesterase, sequence (P81908 whole entry): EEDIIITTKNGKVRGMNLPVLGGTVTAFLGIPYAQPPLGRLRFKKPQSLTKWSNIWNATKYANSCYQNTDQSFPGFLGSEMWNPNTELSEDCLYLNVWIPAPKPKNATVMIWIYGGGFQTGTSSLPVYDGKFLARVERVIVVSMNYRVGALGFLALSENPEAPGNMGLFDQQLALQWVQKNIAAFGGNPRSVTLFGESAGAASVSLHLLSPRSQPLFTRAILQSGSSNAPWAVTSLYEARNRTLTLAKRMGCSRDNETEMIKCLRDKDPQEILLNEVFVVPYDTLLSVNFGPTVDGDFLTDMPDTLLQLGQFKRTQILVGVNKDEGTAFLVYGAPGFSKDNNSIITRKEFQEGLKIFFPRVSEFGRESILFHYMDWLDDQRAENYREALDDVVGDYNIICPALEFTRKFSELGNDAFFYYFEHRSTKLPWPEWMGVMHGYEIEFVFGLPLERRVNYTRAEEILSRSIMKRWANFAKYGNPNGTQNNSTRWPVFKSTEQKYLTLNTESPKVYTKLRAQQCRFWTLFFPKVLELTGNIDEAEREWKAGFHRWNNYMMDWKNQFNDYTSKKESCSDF
Description: Inhibition of horse serum BuChE by Ellman's method

Acetylcholinesterase (Homo sapiens, UniProt P22303), sequence (P22303 whole entry): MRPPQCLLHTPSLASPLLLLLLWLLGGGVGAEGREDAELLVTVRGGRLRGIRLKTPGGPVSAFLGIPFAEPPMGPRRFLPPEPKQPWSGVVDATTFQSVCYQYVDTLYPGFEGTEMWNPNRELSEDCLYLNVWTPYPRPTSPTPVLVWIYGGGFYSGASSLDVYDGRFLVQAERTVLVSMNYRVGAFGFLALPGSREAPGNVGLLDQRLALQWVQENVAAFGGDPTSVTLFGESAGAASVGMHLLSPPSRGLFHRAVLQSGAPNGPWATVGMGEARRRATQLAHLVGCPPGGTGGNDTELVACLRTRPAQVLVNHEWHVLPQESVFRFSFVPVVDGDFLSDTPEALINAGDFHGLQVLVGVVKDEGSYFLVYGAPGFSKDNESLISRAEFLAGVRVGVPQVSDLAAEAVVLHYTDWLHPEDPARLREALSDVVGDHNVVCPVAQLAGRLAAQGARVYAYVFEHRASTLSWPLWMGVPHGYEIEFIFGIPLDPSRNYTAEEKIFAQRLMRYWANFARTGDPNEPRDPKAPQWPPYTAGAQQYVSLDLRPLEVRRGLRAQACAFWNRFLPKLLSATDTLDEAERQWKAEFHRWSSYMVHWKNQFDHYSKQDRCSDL
Acetylcholinesterase (Electrophorus electricus, UniProt O42275), sequence (O42275 whole entry): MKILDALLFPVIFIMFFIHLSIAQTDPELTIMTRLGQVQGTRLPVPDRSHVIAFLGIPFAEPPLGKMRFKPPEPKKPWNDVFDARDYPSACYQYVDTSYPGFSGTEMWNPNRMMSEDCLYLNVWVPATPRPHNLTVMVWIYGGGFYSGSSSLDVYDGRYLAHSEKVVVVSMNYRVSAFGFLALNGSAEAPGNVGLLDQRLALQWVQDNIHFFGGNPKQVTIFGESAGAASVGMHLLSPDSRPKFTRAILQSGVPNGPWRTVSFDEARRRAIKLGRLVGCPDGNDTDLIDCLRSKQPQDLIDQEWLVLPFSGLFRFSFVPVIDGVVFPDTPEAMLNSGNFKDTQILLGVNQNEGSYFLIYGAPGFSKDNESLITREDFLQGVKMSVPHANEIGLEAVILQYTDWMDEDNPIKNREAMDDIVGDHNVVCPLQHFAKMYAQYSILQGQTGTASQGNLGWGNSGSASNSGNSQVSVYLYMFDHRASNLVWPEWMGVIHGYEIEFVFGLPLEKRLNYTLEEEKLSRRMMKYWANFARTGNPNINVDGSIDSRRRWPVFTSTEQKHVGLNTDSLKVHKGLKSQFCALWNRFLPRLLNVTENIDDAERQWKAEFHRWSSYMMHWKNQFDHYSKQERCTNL

Compound | IC50 [1] [nM] | IC50 [2] [nM] | IC50 [3] [µM]
COc1c(O)cc2c3c1-c1ccccc1C[C@H]3NCC2 [(-)-ASIMILOBINE] | > 100000 | > 100000 | > 100
COc1ccc2c(=O)oc3c(OC)cc(CCN(C)C)c4c(=O)oc1c2c34 [TASPINE] | 330 | 540 | > 100
